# Data: ChEMBL document CHEMBL1201862, “PubChem BioAssay data set” (2004)
#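 Cells were grown in 96-well plates and exposed to each compound for 48 hours at five concentrations; endpoints were interpolated linearly between bracketing concentrations, or set to the highest concentration if not reached. GI50 = concentration required for 50% inhibition of growth.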 Activity calls are given as the source filed them. No stated cut-off is given here; in the data, active = GI50 up to about 1.1 µM and inactive = higher.
# How the values were obtained:
# Test in all cases: NCI tumour cell line growth inhibition, 48 h
# SK-MEL-28 = system: SK-MEL-28
# UACC-62 = system: UACC-62
# MDA-MB-231 = system: MDA-MB-231
# IGROV-1 = system: IGROV-1
# CAKI-1 = system: CAKI-1
# OVCAR-4 = system: OVCAR-4
# HCT-116 = system: HCT-116
# MCF7 = system: MCF7
# MDA-MB-435 = system: MDA-MB-435
# HOP-62 = system: HOP-62
# PC-3 = system: PC-3
# NCI-H460 = system: NCI-H460
# SF-268 = system: SF-268
# HOP-92 = system: HOP-92
# ACHN = system: ACHN
# SF-539 = system: SF-539
# U-251 = system: U-251
# OVCAR-3 = system: OVCAR-3
# RXF 393 = system: RXF 393
# RPMI-8226 = system: RPMI-8226
Compound,GI50 (SK-MEL-28),GI50 (UACC-62),GI50 (MDA-MB-231),GI50 (IGROV-1),GI50 (CAKI-1),GI50 (OVCAR-4),GI50 (HCT-116),GI50 (MCF7),GI50 (MDA-MB-435),GI50 (HOP-62),GI50 (PC-3),GI50 (NCI-H460),GI50 (SF-268),GI50 (HOP-92),GI50 (ACHN),GI50 (SF-539),GI50 (U-251),GI50 (OVCAR-3),GI50 (RXF 393),GI50 (RPMI-8226)
O=[N+]([O-])c1ccc(-n2nc3ccc4c(no[n+]4[O-])c3n2)cc1,> 100 µM (inactive),88.3 µM (inactive),> 100 µM (inactive),> 100 µM (inactive),> 100 µM (inactive),> 100 µM (inactive),> 100 µM (inactive),82 µM (inactive),> 100 µM (inactive),35.2 µM (inactive),5.55 µM (inactive),33.2 µM (inactive),> 100 µM (inactive),5.82 µM (inactive),7.11 µM (inactive),> 100 µM (inactive),> 100 µM (inactive),> 100 µM (inactive),,
Cc1nc(O)nc2nc3cc(Cl)cc(Cl)c3c(NC(C)(CO)CO)c12,> 100 µM (inactive),72.3 µM (inactive),14.7 µM (inactive),35.9 µM (inactive),94.6 µM (inactive),> 100 µM (inactive),34 µM (inactive),1.55 µM (inactive),> 100 µM (inactive),23.5 µM (inactive),> 100 µM (inactive),> 100 µM (inactive),25.7 µM (inactive),16.4 µM (inactive),50.5 µM (inactive),> 100 µM (inactive),14.4 µM (inactive),> 100 µM (inactive),27.8 µM (inactive),
Oc1c(Br)cc(/C=C/c2ccnc(/C=C/c3cc(Br)c(O)c(Br)c3)c2)cc1Br,39 µM (inactive),24.3 µM (inactive),21.9 µM (inactive),32.4 µM (inactive),35.5 µM (inactive),30.3 µM (inactive),17 µM (inactive),24.2 µM (inactive),26.7 µM (inactive),34.4 µM (inactive),16.4 µM (inactive),12.6 µM (inactive),40.3 µM (inactive),30.8 µM (inactive),28.4 µM (inactive),18.5 µM (inactive),15.2 µM (inactive),19.7 µM (inactive),,20.7 µM (inactive)
O=C(/C=C1\Nc2ccccc2N\C1=C\C(=O)c1ccc(Cl)cc1)c1ccccc1,42.4 µM (inactive),> 100 µM (inactive),> 100 µM (inactive),> 100 µM (inactive),27.8 µM (inactive),31.3 µM (inactive),38.3 µM (inactive),38.7 µM (inactive),> 100 µM (inactive),26.1 µM (inactive),> 100 µM (inactive),19.7 µM (inactive),> 100 µM (inactive),,31.6 µM (inactive),35.1 µM (inactive),23.4 µM (inactive),,70.1 µM (inactive),39.4 µM (inactive)
Cc1cnc(-c2c[nH]c3ccccc23)nc1-c1c[nH]c2ccccc12,,4.27 µM (inactive),2.31 µM (inactive),1.14 µM (inactive),5.4 µM (inactive),5.2 µM (inactive),4.56 µM (inactive),3.05 µM (inactive),5.87 µM (inactive),11.7 µM (inactive),3.49 µM (inactive),2.65 µM (inactive),15.9 µM (inactive),2.03 µM (inactive),2.94 µM (inactive),11.7 µM (inactive),6.46 µM (inactive),8.13 µM (inactive),,3.9 µM (inactive)
COc1ccc(C(=O)/C=C/c2ccc(OCCCCCCCCCCOc3ccc(/C=C/C(=O)c4ccc(OC)c(OC)c4)cc3)cc2)c(OC)c1,> 100 µM (inactive),> 100 µM (inactive),> 100 µM (inactive),> 100 µM (inactive),> 100 µM (inactive),> 100 µM (inactive),> 100 µM (inactive),> 100 µM (inactive),> 100 µM (inactive),> 100 µM (inactive),> 100 µM (inactive),> 100 µM (inactive),> 100 µM (inactive),,> 100 µM (inactive),> 100 µM (inactive),> 100 µM (inactive),,> 100 µM (inactive),> 100 µM (inactive)
C/C(=N\NC(=S)N1CCCC1)c1nc2cccnc2[nH]1,0.349 µM (active),0.259 µM (active),16.5 µM (inactive),0.354 µM (active),0.37 µM (active),0.302 µM (active),0.163 µM (active),0.33 µM (active),0.416 µM (active),0.356 µM (active),0.355 µM (active),0.0612 µM (active),0.185 µM (active),0.681 µM (active),0.0897 µM (active),0.0863 µM (active),0.0962 µM (active),0.35 µM (active),,0.553 µM (active)
CSC(SC)=C(C#N)C(=O)Nc1ccc(Cl)cc1,> 100 µM (inactive),46 µM (inactive),> 100 µM (inactive),,22 µM (inactive),29.9 µM (inactive),29.1 µM (inactive),41.8 µM (inactive),69.2 µM (inactive),,54.2 µM (inactive),> 100 µM (inactive),61.7 µM (inactive),,,27.7 µM (inactive),91 µM (inactive),> 100 µM (inactive),19.8 µM (inactive),26.4 µM (inactive)
O=C1CNNC(CSc2nc3ccc(I)cc3c(=O)n2Cc2ccccc2)=N1,20.9 µM (inactive),15.8 µM (inactive),14.5 µM (inactive),18 µM (inactive),15 µM (inactive),37.4 µM (inactive),20.8 µM (inactive),28.4 µM (inactive),32.6 µM (inactive),32.3 µM (inactive),24.5 µM (inactive),30.9 µM (inactive),24.7 µM (inactive),22.7 µM (inactive),16.3 µM (inactive),22.5 µM (inactive),21.4 µM (inactive),18.6 µM (inactive),,22.6 µM (inactive)
O=c1n(-c2ccccc2)c(=O)n2n1C1Cc3ccccc3C12 (stereo unspecified),> 100 µM (inactive),> 100 µM (inactive),> 100 µM (inactive),> 100 µM (inactive),> 100 µM (inactive),,> 100 µM (inactive),> 100 µM (inactive),> 100 µM (inactive),> 100 µM (inactive),> 100 µM (inactive),> 100 µM (inactive),> 100 µM (inactive),> 100 µM (inactive),> 100 µM (inactive),> 100 µM (inactive),> 100 µM (inactive),> 100 µM (inactive),,> 100 µM (inactive)
O=c1oc2ccccc2cc1-c1csc(Nc2cc(Cl)cc(Cl)c2)n1,9.51 µM (inactive),52.5 µM (inactive),4.66 µM (inactive),14 µM (inactive),,1.79 µM (inactive),3.6 µM (inactive),17.4 µM (inactive),4.9 µM (inactive),3.85 µM (inactive),> 100 µM (inactive),6.64 µM (inactive),12.8 µM (inactive),> 39 µM (inactive),1.9 µM (inactive),2.28 µM (inactive),2.39 µM (inactive),11.5 µM (inactive),5.14 µM (inactive),> 100 µM (inactive)
C#CC(C)(C)OC(=O)C(=[N+]=[N-])C(C)=O,> 10 µM (inactive),> 10 µM (inactive),> 10 µM (inactive),> 10 µM (inactive),,,> 10 µM (inactive),> 10 µM (inactive),> 10 µM (inactive),> 10 µM (inactive),> 10 µM (inactive),> 10 µM (inactive),> 10 µM (inactive),> 10 µM (inactive),> 10 µM (inactive),> 10 µM (inactive),> 10 µM (inactive),> 10 µM (inactive),> 10 µM (inactive),> 10 µM (inactive)
O=[N+]([O-])c1ccc(/N=N\c2c(O)c(S(=O)(=O)O)cc3cc(S(=O)(=O)O)ccc23)cc1,> 100 µM (inactive),> 100 µM (inactive),> 100 µM (inactive),> 100 µM (inactive),> 100 µM (inactive),> 100 µM (inactive),> 100 µM (inactive),> 100 µM (inactive),> 100 µM (inactive),88.5 µM (inactive),> 100 µM (inactive),> 100 µM (inactive),,> 100 µM (inactive),> 100 µM (inactive),> 100 µM (inactive),> 100 µM (inactive),27 µM (inactive),,> 100 µM (inactive)
Cc1occc1/C(S)=N\c1ccc(Cl)c(C(=O)OCC2CC2)c1,72.6 µM (inactive),31.3 µM (inactive),37.8 µM (inactive),37.3 µM (inactive),5.81 µM (inactive),32 µM (inactive),43.9 µM (inactive),38.5 µM (inactive),75.3 µM (inactive),,30.4 µM (inactive),57.9 µM (inactive),36.1 µM (inactive),30.8 µM (inactive),34.5 µM (inactive),51.6 µM (inactive),95.3 µM (inactive),52.2 µM (inactive),,23.1 µM (inactive)
CC[C@](O)(C(=O)O)c1cc2n(c(=O)c1CO)Cc1cc3ccccc3nc1-2,,0.025 µM (active),0.665 µM (active),0.0652 µM (active),0.025 µM (active),0.214 µM (active),0.0308 µM (active),0.061 µM (active),0.0532 µM (active),0.0025 µM (active),0.131 µM (active),0.025 µM (active),,0.112 µM (active),0.0025 µM (active),0.0697 µM (active),0.025 µM (active),,0.0384 µM (active),
